Measured values published in patent US20250092360A1, “METHODS AND COMPOSITIONS FOR GENERATING SOMATOSTATIN+ INTERNEURONS FROM HUMAN FOREBRAIN NEURAL PROGENITOR CELLS” (Trailhead Biosystems Inc., priority 2023, published 2025).
“Also recorded” adds a separate entry of the source.

Tests used:
Assay type in all cases: cell-based, human
[1] = test system: forebrain-committed neural stem cells; experiment: Factor criticality analysis, stage 2 recipe; conditions: for expression level of PAX6 when the factor is removed / expression level of NKX2-2 when the factor is removed / expression level of NKX2-1 when the factor is removed: other three stage 2 factors present; for expression level of PAX6 when the factor is removed: 0 with all four factors; for expression level of NKX2-2 when the factor is removed: 100 with all four factors; for expression level of NKX2-1 when the factor is removed: 5000 with all four factors
Method: (§1) To assess the impact of the elimination of each validated factor, dynamic profile analysis was used and compared the expression level of genes of interest in absence of each finalized factor while others are present.
In the stage 2 recipe, each of the four finalized factors were removed while the other three factors remained present and expression levels of NKX2-1, PAX6 and NKX2-2 were assessed compared to presence of all four factors. Absence of PD0325901 reduced the levels of NKX2-1 and NKX2-2 while increasing PAX6 from 5000 to 3200, 100 to 0 and 0 to 5000, respectively. […] Removing XAV939 reduced the levels of NKX2-1 from 5000 to 3000, while increasing both PAX6 and NKX2-2 to 10000 and 200, respectively. Another observation was the interaction between XAV939 and Purmorphamine. In the absence of XAV939, the impact of Purmorphamine on NKX2-1 became negative and, as it is shown in interaction plot of FIG. 14, the level of NKX2-1 is higher when both factors are present.

[2] = test system: medial ganglionic eminence (MGE)-derived neural progenitors; experiment: HD-DoE stage 4, 12-factor experiment: SOX6 expression; conditions: for impact on expression of SOX6: dynamic profile, in words; for factor contribution, expression of SOX6: significant negative effect, model optimized for maximal SOX6
Excerpt: These effectors are small chemical compounds or proteins. They are commonly used during the differentiation of stem cells to specific cell linage. The choice of the effectors was based on the current literature on forebrain neural induction and differentiation of neural progenitor cells to mature neurons.
To evaluate the effectors on SST differentiation, experiments with 8 or 12 factors were designed to assess the responses of cells to 48 or more combinations of effectors in a range of concentrations. To analyze the models, we focused on expression of genes involved in development and patterning of the forebrain interneurons maturation including LHX6 (Liodis et al. (2007) J. Neurosci. 27:3078-3089; Yuan et al. (2018) Elife 7: e37382), SOX6 (Azim et al. (2009) Nature Neurosci. 12:1238-1247; Batista-Brito et al. (2009) Neuron 63:466-481), DLX5 (de Lombares et al. (2019) Aging (Albany NY) 11:6638; Wang et al. (2010) J. Neurosci. 30:5334-5345) and ASCL1 (Barretto et al. (2020) J. Neurosci. Meth. 334:108548; Shi et al. (2016) J. Biol. Chem. 291:13560-13570). At later stages we focused on interneuron maturation genes including somatostatin and absence of Parvalbumin (Horn and Nicoll (2018) Proc. Natl. Acad. Sci. 115:589-594). The impacts of each effector on gene expression level are defined by a parameter called factor contribution that is calculated for each effector during the modeling.
To identify the recipe for differentiation at stage 4, at least 48 different combinations of effectors were robotically prepared by the Design-of-Experiments compression through D-optimality. The effector combinations were prepared in a basal media and were subsequently added to the cells, which were then allowed to differentiate. Three days later, RNA extraction was performed, and gene expression levels were examined using quantitative PCR analysis. The data was normalized and modeled using partial least squares regression analysis to the effector design, resulting in the generation of gene-specific models, which after model tuning for maximal predictive power, provided explanation of the effectors ability to control the expression of individual genes, combinatorically, and individually. Solutions within the tested space could then be explored to address desirability.
IGF-1 activates the IGF-1 pathway, promotes neuron axonal growth, and establishes the synapse of interneurons. GDNF is the […] and can activate the GDNF pathway. MK2206 is an AKT inhibitor and can inhibit cell proliferation and promote neuronal maturation. PD173074 and BLU-554 are FGFR inhibitors. The FGF pathway is required for the maintenance of neural progenitor cells. Inhibition of the FGFR pathway promotes neural maturation. GSI-XX is a notch pathway inhibitor. Notch pathway inhibits neural progenitor cell differentiation. Inhibition of the Notch pathway promotes neural differentiation.
To find the set of factors that have the potential to optimize SOX6 in this experiment, a new assessment was done through dynamic profile analysis with focus on maximal expression of SOX6.

[3] = test system: stage 2 neural stem cells; experiment: HD-DoE stage 3 experiment: ASCL1, LHX6, DLX1 expression
Method: To further guide the cells to medial ganglionic eminence progenitor fate, an additional HD-DoE experiment was performed for 3 days on cells that were treated with stage 1 and stage 2 media for total of 6 days prior to start of the experiment. This experiment included 13 effectors, LDN193189, A8301, GNF5837, AZD3147, GSI-XX, Takinib, PD0325901, PD173074, BLU9931, IGF-1, MHY1485, Purmorphamine and Prostratin. In this model, we focused on maximum expression of genes expressed in neuronal progenitor cells in medial ganglionic eminence (MGE) region including ASCL1, LHX6 and DLX1 (Silberberg et al. (2016) Neuron 92:59-74). When the model was optimized for maximum expression of ASCL1 at 1700, A8301, GSI-XX, Purmorphamine and Takinib, which is an inhibitor of TAK1 pathway, had the highest factor contributions, 18.1, 14.1, 12.7 and 10.1 respectively. […] MHY 1485 also had positive contribution however the factor was below 2 (FIG. 9).
Therefore, six effectors including A8301, GSI-XX, Takinib, GNF5837, IGF-1 and Purmorphamine were finalized as ingredients of stage 3 differentiation media. A representative recipe for Stage 3 differentiation is summarized below in Table 3.

[4] = test system: stage 2 neural stem cells; experiment: Factor criticality analysis, stage 3 recipe; conditions: other five stage 3 factors present
Method: as §1
In the stage 3 recipe, each of the six finalized factors were removed while the other five factors remained present and the expression levels of ASCL1, DLX1 and LHX6 were assessed compared to the presence of all six factors. […] As expected, in the absence of IGF-1, the value of DLX1 increases to 410, however, ASCL1 and LHX6 decreased to 1390 and 220, respectively.

Row | Structure (SMILES) | expression level of PAX6 when the factor is removed [1] | expression level of NKX2-2 when the factor is removed [1] | expression level of NKX2-1 when the factor is removed [1] | impact on expression of SOX6 [2] | factor contribution, expression of SOX6 [2] | impact on NKX2-1 in the absence of XAV939 ([1]; interaction plot FIG. 14) | impact on expression of ASCL1 ([3]; dynamic profile, in words) | impact on expression of DLX1 ([3]; dynamic profile, in words) | impact on expression of LHX6 ([3]; dynamic profile, in words) | factor contribution, expression of ASCL1 ([3]; positive, model optimized for maximum ASCL1 at 1700) | expression level of DLX1 when the factor is removed ([4]; 220 with all six factors) | expression level of LHX6 when the factor is removed ([4]; 240 with all six factors) | expression level of ASCL1 when the factor is removed ([4]; 1650 with all six factors)
1 | c1ccc2c(-c3cnn4cc(-c5ccc(N6CCNCC6)cc5)cnc34)ccnc2c1 [LDN193189] | below 0 | below 0 | did not significantly change | negative effect | 9.8 | – | – | – | – | – | – | – | –
2 | O=C(NOC[C@H](O)CO)c1ccc(F)c(F)c1Nc1ccc(I)cc1F [PD0325901] | 5000 | 0 | 3200 | negative effect | 5.1 | – | – | – | – | – | – | – | –
3 | c1ccc2c(Oc3nc(Nc4ccc(N5CCOCC5)cc4)c4ncn(C5CCCCC5)c4n3)cccc2c1 [Purmorphamine] | – | – | – | – | – | negative | positive trends; also recorded: Positive impact | did not have a significant negative impact | positive trends; also recorded: Positive impact | 12.7 | stayed the same | 190 | 1200
